Measurements as given in ChEMBL document CHEMBL3872259, “Synthesis, characterization, and in vitro SAR evaluation of N,N'-bis(arylmethyl)-C2-alkyl substituted imidazolium salts” (Bioorg Med Chem Lett, 2017).

assay: Antiproliferative activity against human NCI-H1975 cells assessed as reduction in cell viability measured after 72 hrs by MTT assay; type: functional, cell-based; conditions: NCI-H1975, 72 h

Row | SMILES | IC50 [µM]
1 | [Br-].c1ccc(-c2n(Cc3ccc4ccccc4c3)cc[n+]2Cc2ccc3ccccc3c2)cc1 | 2
2 | Cc1n(Cc2ccc3ccccc3n2)cc[n+]1Cc1ccc2ccccc2n1.[Cl-] | 2
3 | CCCCc1n(Cc2ccc3ccccc3n2)cc[n+]1Cc1ccc2ccccc2c1.[Cl-] | 2
4 | [Cl-].c1ccc(-c2n(Cc3ccc4ccccc4n3)cc[n+]2Cc2ccc3ccccc3c2)cc1 | 2
5 | c1ccc2cc(Cn3cc[n+](Cc4ccc5ccccc5c4)c3)ccc2c1 | 6

assay: Antiproliferative activity against human HOP92 cells assessed as cell growth at 10 uM measured after 48 hrs by sulforhodamine B assay relative to control; type: functional; conditions: HOP-92, 48 h, read-out: Activity

Row | SMILES | growth at 10 µM [%]
6 | [Br-].c1ccc(-c2n(Cc3ccc4ccccc4c3)cc[n+]2Cc2ccc3ccccc3c2)cc1 | -69.7
7 | Cc1n(Cc2ccc3ccccc3n2)cc[n+]1Cc1ccc2ccccc2n1.[Cl-] | 74.5
8 | c1ccc2cc(Cn3cc[n+](Cc4ccc5ccccc5c4)c3)ccc2c1 | -13.3

assay: Antiproliferative activity against human HCC827 cells assessed as reduction in cell viability measured after 72 hrs by MTT assay; type: functional, cell-based; conditions: HCC827, 72 h

Row | SMILES | IC50 [µM]
9 | [Br-].c1ccc(-c2n(Cc3ccc4ccccc4c3)cc[n+]2Cc2ccc3ccccc3c2)cc1 | 2
10 | Cc1n(Cc2ccc3ccccc3n2)cc[n+]1Cc1ccc2ccccc2n1.[Cl-] | 13
11 | CCCCc1n(Cc2ccc3ccccc3n2)cc[n+]1Cc1ccc2ccccc2c1.[Cl-] | 6
12 | [Cl-].c1ccc(-c2n(Cc3ccc4ccccc4n3)cc[n+]2Cc2ccc3ccccc3c2)cc1 | 6
13 | c1ccc2cc(Cn3cc[n+](Cc4ccc5ccccc5c4)c3)ccc2c1 | 9

assay: Growth inhibition of human HOP92 cells measured after 48 hrs by sulforhodamine B assay; type: functional; conditions: HOP-92, 48 h

Row | SMILES | GI50 [µM] | TGI [µM]
14 | [Br-].c1ccc(-c2n(Cc3ccc4ccccc4c3)cc[n+]2Cc2ccc3ccccc3c2)cc1 | 0.602 | 2.28
15 | c1ccc2cc(Cn3cc[n+](Cc4ccc5ccccc5c4)c3)ccc2c1 | 0.16 | 1.39

same assay, conditions: HOP-92, 48 h, read-out: LC50 (the source's name)

Row | SMILES | CC50 [µM]
16 | c1ccc2cc(Cn3cc[n+](Cc4ccc5ccccc5c4)c3)ccc2c1 | 15.2

assay: Antiproliferative activity against human NCI-H23 cells assessed as cell growth at 10 uM measured after 48 hrs by sulforhodamine B assay relative to control; type: functional; conditions: NCI-H23, 48 h, read-out: Activity

Row | SMILES | growth at 10 µM [%]
17 | [Br-].c1ccc(-c2n(Cc3ccc4ccccc4c3)cc[n+]2Cc2ccc3ccccc3c2)cc1 | -38.7
18 | Cc1n(Cc2ccc3ccccc3n2)cc[n+]1Cc1ccc2ccccc2n1.[Cl-] | 69.8
19 | c1ccc2cc(Cn3cc[n+](Cc4ccc5ccccc5c4)c3)ccc2c1 | 41.6

assay: Antiproliferative activity against human NCI-H460 cells assessed as cell growth at 10 uM measured after 48 hrs by sulforhodamine B assay relative to control; type: functional; conditions: NCI-H460, 48 h, read-out: Activity

Row | SMILES | growth at 10 µM [%]
20 | [Br-].c1ccc(-c2n(Cc3ccc4ccccc4c3)cc[n+]2Cc2ccc3ccccc3c2)cc1 | -78.4
21 | Cc1n(Cc2ccc3ccccc3n2)cc[n+]1Cc1ccc2ccccc2n1.[Cl-] | 95
22 | c1ccc2cc(Cn3cc[n+](Cc4ccc5ccccc5c4)c3)ccc2c1 | 39.6

assay: Growth inhibition of human NCI-H23 cells measured after 48 hrs by sulforhodamine B assay; type: functional; conditions: NCI-H23, 48 h

Row | SMILES | GI50 [µM] | TGI [µM]
23 | [Br-].c1ccc(-c2n(Cc3ccc4ccccc4c3)cc[n+]2Cc2ccc3ccccc3c2)cc1 | 0.775 | 2.35
24 | c1ccc2cc(Cn3cc[n+](Cc4ccc5ccccc5c4)c3)ccc2c1 | 0.901 | 10.1

same assay, conditions: NCI-H23, 48 h, read-out: LC50 (the source's name)

Row | SMILES | CC50 [µM]
25 | [Br-].c1ccc(-c2n(Cc3ccc4ccccc4c3)cc[n+]2Cc2ccc3ccccc3c2)cc1 | 6.14
26 | c1ccc2cc(Cn3cc[n+](Cc4ccc5ccccc5c4)c3)ccc2c1 | 39.4

assay: Growth inhibition of human HOP62 cells measured after 48 hrs by sulforhodamine B assay; type: functional; conditions: HOP-62, 48 h

Row | SMILES | GI50 [µM] | TGI [µM]
27 | [Br-].c1ccc(-c2n(Cc3ccc4ccccc4c3)cc[n+]2Cc2ccc3ccccc3c2)cc1 | 1.46 | 3.23
28 | c1ccc2cc(Cn3cc[n+](Cc4ccc5ccccc5c4)c3)ccc2c1 | 3.26 | 17

same assay, conditions: HOP-62, 48 h, read-out: LC50 (the source's name)

Row | SMILES | CC50 [µM]
29 | c1ccc2cc(Cn3cc[n+](Cc4ccc5ccccc5c4)c3)ccc2c1 | 45.9

assay: Antiproliferative activity against human EKVX cells assessed as cell growth at 10 uM measured after 48 hrs by sulforhodamine B assay relative to control; type: functional; conditions: read-out: Activity

Row | SMILES | growth at 10 µM [%]
30 | [Br-].c1ccc(-c2n(Cc3ccc4ccccc4c3)cc[n+]2Cc2ccc3ccccc3c2)cc1 | 3.5
31 | Cc1n(Cc2ccc3ccccc3n2)cc[n+]1Cc1ccc2ccccc2n1.[Cl-] | 80.7
32 | c1ccc2cc(Cn3cc[n+](Cc4ccc5ccccc5c4)c3)ccc2c1 | 51.6

assay: Antiproliferative activity against human NCI-H226 cells assessed as cell growth at 10 uM measured after 48 hrs by sulforhodamine B assay relative to control; type: functional; conditions: NCI-H226, 48 h, read-out: Activity

Row | SMILES | growth at 10 µM [%]
33 | [Br-].c1ccc(-c2n(Cc3ccc4ccccc4c3)cc[n+]2Cc2ccc3ccccc3c2)cc1 | -9.03
34 | Cc1n(Cc2ccc3ccccc3n2)cc[n+]1Cc1ccc2ccccc2n1.[Cl-] | 88.1
35 | c1ccc2cc(Cn3cc[n+](Cc4ccc5ccccc5c4)c3)ccc2c1 | 52.1

assay: Growth inhibition of human EKVX cells measured after 48 hrs by sulforhodamine B assay; type: functional; conditions: not given

Row | SMILES | GI50 [µM] | TGI [µM]
36 | [Br-].c1ccc(-c2n(Cc3ccc4ccccc4c3)cc[n+]2Cc2ccc3ccccc3c2)cc1 | 1.58 | 3.43
37 | c1ccc2cc(Cn3cc[n+](Cc4ccc5ccccc5c4)c3)ccc2c1 | 2.51 | 15.5

same assay, conditions: read-out: LC50 (the source's name)

Row | SMILES | CC50 [µM]
38 | c1ccc2cc(Cn3cc[n+](Cc4ccc5ccccc5c4)c3)ccc2c1 | 4.75

assay: Aqueous solubility of the compound; type: physicochemical; conditions: buffer

Row | SMILES | solubility [mM]
39 | [Br-].c1ccc(-c2n(Cc3ccc4ccccc4c3)cc[n+]2Cc2ccc3ccccc3c2)cc1 | < 0.5
40 | Cc1n(Cc2ccc3ccccc3n2)cc[n+]1Cc1ccc2ccccc2n1.[Cl-] | > 80
41 | CCCCc1n(Cc2ccc3ccccc3n2)cc[n+]1Cc1ccc2ccccc2c1.[Cl-] | > 10
42 | [Cl-].c1ccc(-c2n(Cc3ccc4ccccc4n3)cc[n+]2Cc2ccc3ccccc3c2)cc1 | > 10

assay: Growth inhibition of human NCI-H226 cells measured after 48 hrs by sulforhodamine B assay; type: functional; conditions: NCI-H226, 48 h

Row | SMILES | GI50 [µM] | TGI [µM]
43 | [Br-].c1ccc(-c2n(Cc3ccc4ccccc4c3)cc[n+]2Cc2ccc3ccccc3c2)cc1 | 1.26 | 2.97
44 | c1ccc2cc(Cn3cc[n+](Cc4ccc5ccccc5c4)c3)ccc2c1 | 1.72 | 14.3

same assay, conditions: NCI-H226, 48 h, read-out: LC50 (the source's name)

Row | SMILES | CC50 [µM]
45 | c1ccc2cc(Cn3cc[n+](Cc4ccc5ccccc5c4)c3)ccc2c1 | 71.9

assay: Antiproliferative activity against human A549/ATCC cells assessed as cell growth at 10 uM measured after 48 hrs by sulforhodamine B assay relative to control; type: functional; conditions: A549, 48 h, read-out: Activity

Row | SMILES | growth at 10 µM [%]
46 | [Br-].c1ccc(-c2n(Cc3ccc4ccccc4c3)cc[n+]2Cc2ccc3ccccc3c2)cc1 | 12.5
47 | Cc1n(Cc2ccc3ccccc3n2)cc[n+]1Cc1ccc2ccccc2n1.[Cl-] | 88.6
48 | c1ccc2cc(Cn3cc[n+](Cc4ccc5ccccc5c4)c3)ccc2c1 | 67.6

assay: Antiproliferative activity against human A549 cells assessed as reduction in cell viability measured after 72 hrs by MTT assay; type: functional, cell-based; conditions: A549, 72 h

Row | SMILES | GI50 [µM] | IC50 [µM] | TGI [µM] | LC50 [µM]
49 | [Br-].c1ccc(-c2n(Cc3ccc4ccccc4c3)cc[n+]2Cc2ccc3ccccc3c2)cc1 | 1.78 | 4 | 3.52 | 
50 | Cc1n(Cc2ccc3ccccc3n2)cc[n+]1Cc1ccc2ccccc2n1.[Cl-] |  | 15 |  | 
51 | CCCCc1n(Cc2ccc3ccccc3n2)cc[n+]1Cc1ccc2ccccc2c1.[Cl-] |  | 3 |  | 
52 | [Cl-].c1ccc(-c2n(Cc3ccc4ccccc4n3)cc[n+]2Cc2ccc3ccccc3c2)cc1 |  | 4 |  | 
53 | c1ccc2cc(Cn3cc[n+](Cc4ccc5ccccc5c4)c3)ccc2c1 | 7.97 |  | 22.9 | 55.3

assay: Antiproliferative activity against human HOP62 cells assessed as cell growth at 10 uM measured after 48 hrs by sulforhodamine B assay relative to control; type: functional; conditions: HOP-62, 48 h, read-out: Activity

Row | SMILES | growth at 10 µM [%]
54 | [Br-].c1ccc(-c2n(Cc3ccc4ccccc4c3)cc[n+]2Cc2ccc3ccccc3c2)cc1 | -44.8
55 | Cc1n(Cc2ccc3ccccc3n2)cc[n+]1Cc1ccc2ccccc2n1.[Cl-] | 90.5
56 | c1ccc2cc(Cn3cc[n+](Cc4ccc5ccccc5c4)c3)ccc2c1 | 42.1

assay: Growth inhibition of human NCI-H322M cells measured after 48 hrs by sulforhodamine B assay; type: functional; conditions: not given

Row | SMILES | GI50 [µM] | TGI [µM]
57 | [Br-].c1ccc(-c2n(Cc3ccc4ccccc4c3)cc[n+]2Cc2ccc3ccccc3c2)cc1 | 1.42 | 2.82
58 | c1ccc2cc(Cn3cc[n+](Cc4ccc5ccccc5c4)c3)ccc2c1 | 8.4 | 21.3

same assay, conditions: read-out: LC50 (the source's name)

Row | SMILES | CC50 [µM]
59 | [Br-].c1ccc(-c2n(Cc3ccc4ccccc4c3)cc[n+]2Cc2ccc3ccccc3c2)cc1 | 5.61
60 | c1ccc2cc(Cn3cc[n+](Cc4ccc5ccccc5c4)c3)ccc2c1 | 47.3

assay: Growth inhibition of human NCI-H522 cells measured after 48 hrs by sulforhodamine B assay; type: functional; conditions: NCI-H522, 48 h

Row | SMILES | GI50 [µM] | TGI [µM] | LC50 (50% lethal concentration) [µM]
61 | [Br-].c1ccc(-c2n(Cc3ccc4ccccc4c3)cc[n+]2Cc2ccc3ccccc3c2)cc1 | 1.07 | 2.58 | 
62 | c1ccc2cc(Cn3cc[n+](Cc4ccc5ccccc5c4)c3)ccc2c1 | 0.393 | 3.11 | 26.8

assay: Antiproliferative activity against human NCI-H522 cells assessed as cell growth at 10 uM measured after 48 hrs by sulforhodamine B assay relative to control; type: functional; conditions: NCI-H522, 48 h, read-out: Activity

Row | SMILES | growth at 10 µM [%]
63 | Cc1n(Cc2ccc3ccccc3n2)cc[n+]1Cc1ccc2ccccc2n1.[Cl-] | 35.9
64 | c1ccc2cc(Cn3cc[n+](Cc4ccc5ccccc5c4)c3)ccc2c1 | -11.7

assay: Antiproliferative activity against human NCI-H322M cells assessed as cell growth at 10 uM measured after 48 hrs by sulforhodamine B assay relative to control; type: functional; conditions: read-out: Activity

Row | SMILES | growth at 10 µM [%]
65 | [Br-].c1ccc(-c2n(Cc3ccc4ccccc4c3)cc[n+]2Cc2ccc3ccccc3c2)cc1 | 8.84
66 | Cc1n(Cc2ccc3ccccc3n2)cc[n+]1Cc1ccc2ccccc2n1.[Cl-] | 103
67 | c1ccc2cc(Cn3cc[n+](Cc4ccc5ccccc5c4)c3)ccc2c1 | 62.8

assay: Antiproliferative activity against human NCI-H460 cells assessed as reduction in cell viability measured after 72 hrs by MTT assay; type: functional, cell-based; conditions: NCI-H460, 72 h

Row | SMILES | GI50 [µM] | IC50 [µM] | TGI [µM]
68 | [Br-].c1ccc(-c2n(Cc3ccc4ccccc4c3)cc[n+]2Cc2ccc3ccccc3c2)cc1 | 1.37 | 3 | 2.87
69 | Cc1n(Cc2ccc3ccccc3n2)cc[n+]1Cc1ccc2ccccc2n1.[Cl-] |  | 8 | 
70 | CCCCc1n(Cc2ccc3ccccc3n2)cc[n+]1Cc1ccc2ccccc2c1.[Cl-] |  | 3 | 
71 | [Cl-].c1ccc(-c2n(Cc3ccc4ccccc4n3)cc[n+]2Cc2ccc3ccccc3c2)cc1 |  | 3 | 
72 | c1ccc2cc(Cn3cc[n+](Cc4ccc5ccccc5c4)c3)ccc2c1 | 1.27 | 4 | 10.4

same assay, conditions: NCI-H460, 72 h, read-out: LC50 (the source's name)

Row | SMILES | CC50 [µM]
73 | c1ccc2cc(Cn3cc[n+](Cc4ccc5ccccc5c4)c3)ccc2c1 | 42
